Data: ChEMBL document CHEMBL4425148, “Cytotoxic prenylated flavones from the stem and root bark of Daphne giraldii” (Bioorg Med Chem Lett, 2016)

Key:
HepG2 [1] = assay: cells; details: Homo sapiens, HepG2, 48 h
A549 = assay: Cytotoxicity against human A549 cells assessed as reduction in cell growth incubated for 48 hrs by MTT assay; type: functional, cell-based; details: A549, 48 h
Bcap37 = assay: Cytotoxicity against human Bcap37 cells assessed as reduction in cell growth incubated for 48 hrs by MTT assay; type: functional, cell-based; details: Bcap37, 48 h
MCF7 = assay: cells; details: Homo sapiens, MCF7, 48 h
U-251 = assay: Cytotoxicity against human U251 cells assessed as reduction in cell growth incubated for 48 hrs by MTT assay; type: functional, cell-based; details: U-251, 48 h
HepG2 [2] = assay: Induction of apoptosis in human HepG2 cells assessed as late apoptotic cells at 2 uM after 48 hrs by Annexin V-FITC/propidium iodide based flow cytometric analysis (reference value: 3.81 %); type: functional
HepG2 [3] = assay: Induction of apoptosis in human HepG2 cells after 48 hrs by Annexin V-FITC/propidium iodide based flow cytometric analysis; type: functional, cell-based
HepG2 [4] = assay: Induction of apoptosis in human HepG2 cells assessed as early apoptotic cells at 2 uM after 48 hrs by Annexin V-FITC/propidium iodide based flow cytometric analysis (reference value: 3.33 %); type: functional

| SMILES | IC50 (HepG2 [1]) [µM] | IC50 (A549) [µM] | IC50 (Bcap37) [µM] | IC50 (MCF7) [µM] | IC50 (U-251) [µM] | Activity (HepG2 [2]) [%] | Activity (HepG2 [3]) | Activity (HepG2 [4]) [%] |
| --- | --- | --- | --- | --- | --- | --- | --- | --- |
| COc1ccc(-c2cc(=O)c3c(O)c(OC)c(O)cc3o2)cc1OC [EUPATILIN] | 52.6 | > 100 | > 100 | 90.1 | > 100 |  |  |  |
| O=c1[nH]cc(F)c(=O)[nH]1 [FLUOROURACIL] | 39.7 | 24.7 | 37.1 |  | 38.7 |  |  |  |
| CC(C)=CCc1c(-c2ccc(O)cc2O)oc2c3c(cc(O)c2c1=O)OC(C)(C)C=C3 [MORUSIN] | 9.3 | 24.1 | 33.1 | 11.5 | 17.9 |  |  |  |
| COc1c(-c2ccc(O)c(O)c2)oc2c(CC=C(C)C)c(O)c(CC=C(C)C)c(O)c2c1=O | 14.1 | 25 | 45.4 | 18.8 | 17.3 |  |  |  |
| COc1c(-c2cc(O)c3c(c2)C=CC(C)(C)O3)oc2c3c(cc(O)c2c1=O)OC(C)(C)[C@@H](O)C3 | 4.26 | 5.39 | 20.8 | 6.98 | 12 | 14.32 | Dose-dependent effect | 13.77 |
| COc1c(-c2cc(O)c3c(c2)C=CC(C)(C)O3)oc2c(CC=C(C)C)c(O)cc(O)c2c1=O | 36.7 | 66.8 | > 100 | 76.9 | > 100 |  |  |  |
| CC(C)=CCc1cc([C@@H]2CC(=O)c3ccc(O)cc3O2)c2c(c1O)OC(C)(C)CC2 | > 100 | 18.4 | > 100 | > 100 | > 100 |  |  |  |
